Results: patent publication US12338199B2, “Bis-octahydrophenanthrene carboxamides and protein conjugates thereof” (REGENERON PHARMACEUTICALS, INC., priority 2017, dated 2025)
“And” between values parts separate entries of the source, which are not always exact repeats. Equal entries are not always repeated. Where two headings read alike, the source gives them in different places.

What was measured:
[1] = tested on: ABCA1; assay: ABCA1 mRNA induction in differentiated THP-1 macrophages (TaqMan); type: cell-based, human; conditions: THP1 macrophages, 24-hour treatment; magnitude in words
Method: To determine the ability of LXR agonists to activate ABCA1 and ABCG1 genes, the mRNA levels of these two genes in differentiated macrophages was measured. […] Cells were differentiated into macrophages by treatment with 100 nM Phorbol-12 myristate 13-acetate (Sigma, # P8139), which was added to the media described above, for 72 hours. […] Chloroform was then used for phase separation. The aqueous phase, containing total RNA, was purified using MagMAX™-96 for Microarrays Total RNA Isolation Kit (Ambion, Cat # AM1830) and reverse-transcribed into cDNA using SuperScript® VILO™ Master Mix (Invitrogen, Cat #11755050) as per the manufacturer's instructions. TaqMan® was performed using Gene Expression Master Mix, the ABI 7900HT Sequence Detection System (Applied Biosystems) and the primers and probes indicated below in Table 9. The GAPDH gene was used as the internal control gene to normalize any cDNA input differences.

[2] = tested on: THP1/LXR-Luc/Her2 cells; assay: THP1/LXR-Luc/Her2 luciferase reporter bioassay; type: cell-based; conditions: Homo sapiens
Excerpt: A bioassay was developed to assess the activity of LXR agonists after internalization of an agonist or of a ncADC into cells and binding to LXR, a nuclear receptor, using a commercially available LXR reporter (referred to as LXR-Luc) that contains the firefly luciferase gene under control by minimal CMV promoter and tandem repeats of the LXR transcriptional response element. For this assay, a THP1 cell line, which is a human monocytic leukaemia line, was engineered to express full length human Her2 (expressing amino acids M1 through V1255 of accession number NP_004439.2). The subsequent stable cell line was further transduced with a Cignal LXR Luc Reporter (Qiagen, Cat # CLS-7041L). The resulting stable cell line is referred to herein as THP1/Her2/LXR-Luc. The Her2 cell surface expression on THP1/Her2/LXR-Luc cell line was confirmed by FACS (data not shown).
This example assessed the ability of the LXR agonists provided herein, reference compounds, and anti-Her2 antibody-LXR ncADC to activate LXR. The samples were tested in the THP1/LXR-Luc/Her2 bioassay. For the assay, either THP1/LXR-Luc cells or THP1/LXR-Luc/Her2 cells were seeded onto white 96 well plates at 30,000 cells/well in media containing RPMI supplemented with 10% FBS and pencillin/streptomycin (complete media). Subsequently 3-fold serial dilutions of antibody drug conjugates, unconjugated antibodies, or free payloads were added to the cells at final concentration ranging from 100 nM to 0.01 nM. After 48-hour or 72-hour incubation, luciferase activity was determined after the addition of One-Glo™ reagent (Promega, Cat # E6130) to each well of cells. Relative light units (RLUs) were measured on a Victor luminometer (PerkinElmer) and the EC5o values were determined using a four-parameter logistic equation over a 10-point dose response curve (GraphPad Prism) (FIG. 15). The fold activation is calculated based on the maximum activation of the free payload 9d.

[3] = tested on: THP-1 cells; assay: BODIPY-cholesterol efflux in THP-1 macrophages; type: cell-based, human; conditions: for EC50: Homo sapiens, THP-1
Method: The ability of anti-MSR1 antibody-LXR conjugates to activate cholesterol efflux in a human macrophage cell line (THP-1; ATCC Catalog # TIB-202), was assessed using a fluorescent cholesterol analog.
Cells were differentiated into macrophages by addition of 100 nM Phorbol-12 myristate 13-acetate (Sigma, Catalog #P 8139) to the media and subjected to further incubation for 96 hours.
Percentage of BODIPY-cholesterol efflux was calculated using the following formula: [fluorescence in acceptor media/(fluorescence in acceptor media+fluorescence in cell lysate)]×100. Table 15 provides activated cholesterol efflux for the tested articles, and FIG. 15 illustrates the data in graph form.

[4] = tested on: THP1/LXR-Luc cells; assay: LXR-luciferase reporter bioassay in PMA-differentiated THP1/LXR-Luc cells; type: cell-based, human; conditions: for EC50: Homo sapiens, THP-1, 48 h, read-out: EC50
Excerpt: To test the efficacy of anti-MSR1 antibody-LXR conjugates in vitro, a cell-based LXR responsive luciferase reporter assay was developed. To generate the assay cell line, a LXR regulated luciferase reporter gene [Cignal Lenti LXR Reporter (luc) kit (Qiagen, Cat # CLS-001L)] was transduced into THP1 cells, and cells were selected for two weeks in puromycin. The lentivirus expresses the firefly luciferase gene under the control of a minimal CMV promoter and tandem repeats of the LXR transcriptional response element. The resulting cell line is referred to as THP1/LXR-Luc cells.
THP1/LXR-Luc cells were seeded onto 96 well plates at 40,000 cells/well in media containing RPMI supplemented with 10% FBS and pencillin/streptomycin and subsequently differentiated with 200 nM Phorbol Myristate Acetate (PMA) for 3 days. After the 3-day differentiation period, three-fold serial dilutions of antibody drug conjugates, unconjugated antibodies, or free payloads in fresh media were added to the cells at final concentration ranging from 100 nM to 0.01 nM. Media alone served as a blank control. Forty-eight hours later, luciferase activity was determined after the addition of One-Glo™ reagent (Promega, Cat # E6130) to each well. Relative light units (RLUs) were measured on a Victor luminometer (PerkinElmer) and EC50 values were determined using a four-parameter logistic equation over a 10-point dose response curve (GraphPad Prism). The signal to noise (S/N) was determined by calculating the ratio of RLU of standard one over RLU of standard eight for each of the unconjugated anti-MSR1 antibodies or free payloads. “LP #” represents a linker-payload for which the corresponding structures are provided elsewhere herein, and “P #” represents a payload for which the corresponding structures are provided elsewhere herein.

C[C@]1(C(=O)NC(=O)[C@@]2(C)CCC[C@]3(C)c4cc(O)ccc4CC[C@@H]23)CCC[C@]2(C)c3cc(N)ccc3CC[C@@H]12 [Compound 9d, (1S,4aS,10aR)—N-[(1S,4aS,10aR)-6-Amino-1,4a-dimethyl-1,2,3,4,4a,9,10,10a-octahydrophenanthrene-1-carbonyl]-6-hydroxy-1,4a-dimethyl-1,2,3,4,4a,9,10,10a-octahydrophenanthrene-1-carboxamide]
ABCA1 induction EC50 [1]: sub-picomolar
EC50 ([2]; THP-1, 48 h, 48-hour time point): 1.6 nM
EC50 ([2]; THP-1, 48 h, 48 hours, unit inferred, values correspond to M): 1.6 nM
EC50 ([2]; THP-1, 72 h, 72-hour time point): 2.8 nM
EC50 ([2]; THP-1, 72 h, 72 hours): 2.8 nM
Maximum efflux (%) ([3]; 24-hour treatment, BODIPY-cholesterol efflux): 36.6% and 36.7%
EC50 ([3]; 24-hour treatment, read-out: Cholesterol Efflux activation EC50): 0.15 nM
EC50 ([3]; after 24 hours, read-out: Cholesterol efflux EC50): 0.15 nM
EC50 ([4]; 48-hour time point, stimulation of THP1/Luc cells): 15.9 nM
EC50 ([4]; PMA-differentiated THP1/LXR-Luc cells, 48 hours, luciferase activity (One-Glo), 10-point dose response 100 nM to 0.01 nM): 1.14 nM
S/N (signal to noise, ratio of RLU of standard one over RLU of standard eight) ([4]; PMA-differentiated THP1/LXR-Luc cells, 48 hours, luciferase activity): 15.9
